Measured values reported in patent US7183459B2, “Dwf7 mutants” (The Arizona Board of Regents on Behalf of the University of …, priority 2000, dated 2007).
Read-outs that look alike come from different tables or passages of the source.

Columns and labels:
dwf7-2 = experiment: Feeding of BR biosynthetic intermediates to dwf7-2 inflorescences; format: in vivo, Arabidopsis thaliana; settings: for elongation of pedicels and internodes of dwf7-2: 3-week-old inflorescences of dwf7-2; for biochemical complementation of the dwf7-2 allele: in vivo
Description: (§1) Feeding experiments using biosynthetic intermediates were performed with 3-week-old mutant plants. The intermediates tested were diluted to the desired concentration with water containing 0.01% Tween 20. Two microliters of each brassinosteroid (BR) solution was applied daily to the shoot tips of plants by using a micro pipettman. After 1 week of treatment, total growth of inflorescence and pedicels was measured to the nearest millimeter (n=15).
A second allele of dwf7 was identified among 43 dwarf mutants isolated by screening >50,000 M2 seeds of an EMS mutant population.
(§2) Similarly, 3-week-old inflorescences of dwf7-2 were tested with 22-OHCR, 6-deoxoCT, teasterone, and BL.

[1] = test system: Δ^7 sterol C-5 desaturase; settings: enzyme prepared from maize microsomes; cited from earlier work
dwf7-1 plants [2] = experiment: Feeding of BR biosynthetic intermediates to shoot tips of 3-week-old dwf7-1 plants; format: in vivo, Arabidopsis thaliana; settings: for elongation of dwf7-1 pedicels in response to BRs: FIG. 4 legend, versus water, n>15
Description: as §1
To pinpoint the defective step in the BR biosynthetic pathway, dwf7-1 mutants were treated with BR biosynthetic intermediates. Due to undetectable bioactivity of some early intermediates (CR to 6-oxocampestanol) in bioassays (Fujioka et al. 1995; Choe et al. (1998) Plant Cell 10:231–243), these were not used. Instead, three biologically active compounds were chosen, 22-OHCR, 6-deoxoCT, and BL, for these feeding tests (see FIG. 1). Because the 22α-hydroxylation reaction is reported to be mediated by DWF4 (Choe et al. (1998) Plant Cell 10:231–243), biochemical complementation of dwf mutants other than dwf4 by 22-OHCR places the defective step upstream of CR.
as §2

[3] = test system: wild-type Arabidopsis seedlings; experiment: Effects of compactin and MVA on growth of seedlings in liquid media; format: in vivo
[4] = test system: Wassilewskija-2 (Ws-2) wild type hypocotyls
Description: (§3) Biochemical complementation of dwf7-1 plants with different concentrations of brassinolide (BL) was performed in liquid media. BL-supplemented (control, 10^−9, 10^−8, and 10^−7 M) sterile liquid media (1.5 mL) was dispensed into wells of a 24-well plate (Corning Co., Corning, N.Y.). Three seedlings, germinated on agar-solidified media, were transferred into each well. After a week of growth with continuous shaking (230 rpm), the seedlings were lightly stained with toluidine blue, and hypocotyls and roots were measured to the nearest millimeter.

dwf7-1 plants [5] = experiment: GA3 spray on 3-week-old dwf7-1 plants; format: in vivo, Arabidopsis thaliana; settings: 0.1 mM GA3 sprayed
wild-type plants = experiment: GA3 spray on wild-type plants; format: in vivo, Arabidopsis thaliana; settings: 0.1 mM GA3 sprayed
From the text: The overall morphology of plants is dependent on three factors: cell size, shape, and number (Cosgrove (1997) Plant Cell 9:1031–1041). Various signals modulate these factors. Environmental signals, such as water, temperature, and light, are transduced to invoke internal hormone signals, including auxins, gibberellins, and BRs. These signals then trigger the cell elongation process, including but not limited to cell wall loosening by xyloglucan endotransglycosylases and expansins. Thus, a block in any of the signal transduction cascades from the environmental signals to the cell elongation process could result in dwarfism. Mutants resistant to or deficient in classic hormones, such as auxin (e.g., auxin resistant2 [axr2]; Timpte (1992) Genetics 138:1239–1249) and gibberellin ([ga1 to ga5 and gai]; Koornneef and van der Veen (1980) Theor. Appl. Genet. 58:257-263; Koornneef et al. (1985) Physiol. Plant. 65:33–39), often result in dwarfism. Thus, we first tested whether dwf7 is either rescued by or resistant to exogenous application of these hormones. […] The reduction of hypocotyl length in dwf7-1 was rescued by the application of BL (FIG. 3). Both wild-type and dwf7-1 plants responded to BL, but dwf7-1 plants were hypersensitive. The length of dwf7-1 hypocotyls was increased 160% in response to 1 nM BL as compared with the untreated control, whereas the wild-type responded marginally (5%).

Description for dwf7-1 hypocotyls: as §3

In the case of `CC(C)[C@H](C)[C@@H](O)[C@H](O)[C@@H](C)[C@H]1CC[C@H]2[C@@H]3CC(=O)[C@H]4C[C@@H](O)CC[C@]4(C)[C@H]3CC[C@]12C` [teasterone], the “elongation of pedicels and internodes of dwf7-2” value (“elongation … of dwf7-2” for short) (dwf7-2) is reported as “significant elongation”.

With `CC(C)[C@H](C)C[C@H](O)[C@@H](C)[C@H]1CC[C@H]2[C@@H]3CC(=O)[C@H]4C[C@@H](O)CC[C@]4(C)[C@H]3CC[C@]12C` [cathasterone] the “biochemical complementation of the dwf7-2 allele” value (dwf7-2) was “biochemically complemented”.

In the case of `[C-]#[O+]` [carbon monoxide], the effect on enzyme [1] is listed as “insensitive”.

With `CC(C)[C@H](C)C[C@H](O)[C@@H](C)[C@H]1CC[C@H]2[C@@H]3CC[C@H]4C[C@@H](O)CC[C@]4(C)[C@H]3CC[C@]12C` [6-deoxoCT] the “elongation of dwf7-1 pedicels in response to BRs” value (shortened to “elongation of dwf7-1 pedicels”) (dwf7-1 plants [2]) was “greater than twofold” and the “elongation … of dwf7-2” value (dwf7-2) was “significant elongation”.

For `C[C@@](O)(CCO)CC(=O)O` [MVA, mevalonic acid], the “reversal of compactin growth inhibition” value ([3]; 4.5 mM MVA applied simultaneously with 10 μM compactin) was “restored to the level of controls”.

For `CC(C)[C@H](C)C[C@H](O)[C@@H](C)[C@H]1CC[C@H]2[C@@H]3CC=C4C[C@@H](O)CC[C@]4(C)[C@H]3CC[C@]12C` [22-OHCR, 22 α-hydroxycampesterol], the “elongation of dwf7-1 pedicels” value (dwf7-1 plants [2]) was “greater than twofold”, the “growth of treated dwf7-1 pedicels relative to wild-type” value (dwf7-1 plants [2]; in vivo) was “greater than or equal to that of the wild-type” and the “rescue of dwf7-1 by exogenous application” value (dwf7-1 plants [2]; in vivo) was “Rescue”. For the same compound, the “elongation … of dwf7-2” value (dwf7-2) was “significant elongation” and the “biochemical complementation of the dwf7-2 allele” value (dwf7-2) was “biochemically complemented”.

In the case of `CC[C@H](C)C(=O)O[C@H]1CCC=C2C=C[C@H](C)[C@H](CC[C@@H]3C[C@@H](O)CC(=O)O3)[C@H]21` [compactin, mevastatin], the growth of seedlings ([3]; 10 μM compactin, liquid media) is reported as “almost completely inhibited”.

With `CC(C)[C@H](C)[C@@H](O)[C@H](O)[C@@H](C)[C@H]1CC[C@H]2[C@@H]3COC(=O)[C@H]4C[C@H](O)[C@H](O)C[C@]4(C)[C@H]3CC[C@]12C` [BL, brassinolide] the “elongation of dwf7-1 pedicels” value (dwf7-1 plants [2]) was “greater than twofold”, the “length of cells in dwf7-1 stem after BL treatment” value (dwf7-1 plants [2]; daily application of 10^-7 M BL for 1 week) was “converted to the length of the wild type” and the “growth of treated dwf7-1 pedicels relative to wild-type” value (dwf7-1 plants [2]; in vivo) was “greater than or equal to that of the wild-type”. The wild-type hypocotyl increase ([4]; 1 nM BL, BL-supplemented liquid media, light-grown) was 5%, the “BL concentration giving the strongest response of the wild type” value ([4]; hypocotyl length, liquid media (FIG. 3)) was 100 nM and the “elongation of dwf7-1 hypocotyls (increase)” value (dwf7-1 hypocotyls; 1 nM BL, BL-supplemented liquid media, light-grown, compared with untreated control) was 160%. The “rescue of dwf7-1 hypocotyls to wild-type length” value (dwf7-1 hypocotyls; 10 nM (10^-8 M) BL) was “completely rescued”, the “rescue of dwf7-1 hypocotyls to wild-type length” value (dwf7-1 hypocotyls; 100 nM BL) was “completely rescued” and the “response of dwf7-1 hypocotyls to BL” value (dwf7-1 hypocotyls; 10^-9 M BL, light-grown (FIG. 3)) was “responds”. The “elongation … of dwf7-2” value (dwf7-2) was “significant elongation”.

In the case of `C=C1C[C@]23C[C@@]1(O)CC[C@H]2[C@@]12C=C[C@H](O)[C@@](C)(C(=O)O1)[C@H]2[C@@H]3C(=O)O` [GA3], the “rescue of the dwf7-1 phenotype” value (dwf7-1 plants [5]) is reported as “did not rescue”, the “increase of inflorescence height” value (dwf7-1 plants [5]; 3-week-old dwf7-1 plants) is reported as less than 10% and the “increase of inflorescence height” value (wild-type plants) is reported as less than 10%.
